Measurements reported in US20080312330A1, “Methods for Reducing Mortality and Morbidity by Postoperative Administration of a Pharmacologic Cardiovascular Agent” (priority 1996, published 2008).
Several values for one entry are separate records, joined by “and”; a condition that tells them apart may be missing. Identical values can stand only once.

Experiments:
[1] = tested on: patients with, or at risk for coronary artery disease and scheduled for elective noncardiac surgery; assay: Randomized, blinded, placebo-controlled trial: mortality and cardiovascular outcomes over two years following noncardiac surgery; type: in vivo
Excerpt: Eligible patients included those with, or at risk for coronary artery disease and scheduled for elective noncardiac surgery requiring general anesthesia at the San Francisco Veterans Affairs Medical Center. The specific inclusion and exclusion criteria have been described previously (Mangano et al., 1990, N. Eng. J. Med. 323:1781-1788; Mangano et al., 1992, JAMA 268:233-239).
(§1) Patients were randomized to receive either atenolol “TENORMIN” (Zeneca Pharmaceuticals) or placebo prior to induction of anesthesia, immediately following surgery, and daily throughout their hospitalization (up to 7 days). Drug assignment, study physicians, treating clinicians, and data analysis personnel were blinded to study group throughout all phases of this trial.
(§2) Intravenous preparation consisted of two-10-ml syringes, each containing 5 mg atenolol or placebo; oral preparation consisted of two 50 mg tablets of atenolol, or two placebo tablets. Approximately one hour prior to surgery, patients entered the preoperative area and blood pressure was recorded with an automated cuff and 5-lead continuous electrocardiograph. Thirty-minutes prior to entry into the operating room, intravenous administration of study drug began. Exclusion criteria for study drug administration were heart rate <55 bpm, systolic blood pressure <100 mm Hg, or evidence of congestive heart failure, third degree heart block, or bronchospasm (ISIS-I protocol, 1986, Lancet 2:56-66). […] Immediately following surgery, the study drug was again given using the identical technique applied prior to surgery. On the morning of the first postoperative day, and daily thereafter until the patient was discharged from the hospital (up to a maximum of seven days), patients received study drug every 12 hours using the same technique for intravenous infusion, or orally (if able) at which time a tablet of atenolol (0, 50 or 100 mg) or placebo was given daily. If heart rate was >65 bpm and systolic blood pressure >100 mm Hg, 100 mg atenolol (or placebo) was given orally; if heart rate was >55 but <65 bpm and systolic blood pressure >100 mm Hg, 50 mg atenolol (or placebo) was administered; if heart rate was <55 bpm or systolic blood pressure <100 mm Hg, 0 mg atenolol (or placebo) was given. No treating clinician was allowed to observe study drug administration either prior to, or after, surgery.
(§3) All patients received general anesthesia with endotracheal intubation; preoperative medications were continued until the time of surgery, with beta-blockers replaced by study drug on the morning of surgery. There were no other protocol-based restrictions of anesthetic or surgical technique, and clinical decisions were not controlled by study protocol. Perioperative information was recorded and analyzed for possible confounding effects, and included: type and duration of surgery, anesthetic techniques, fluid and blood loss and replacement, cardiovascular medications, hemodynamics, electrocardiographic data, and adverse events.
At six months, one year and two years following surgery, study physicians conducted scheduled research study visits that were independent of usual clinical care.

[2] = tested on: patients with, or at risk for coronary artery disease and scheduled for elective noncardiac surgery; assay: Same trial: in-hospital tolerance, hemodynamics and in-hospital deaths during study drug administration
Description: as §1, §2, §3
At six months, one year and two years following surgery, study physicians conducted scheduled research study visits that were independent of usual clinical care. Data collected during each visit included history and physical examination, a 12-lead electrocardiogram, and review of all medical records, medications and hospital admissions. Cardiac death was diagnosed if the patient died of either a myocardial infarction, dysrhythmia or congestive heart failure caused primarily by a cardiac condition.

[3] = long-term deaths, one line per patient of the atenolol group

CC(C)NCC(O)COc1ccc(CC(N)=O)cc1 (stereo not drawn) [atenolol]
HAZARDS RATIO, two-year mortality, multivariate models ([1]; Cox multivariate, 30 deaths among 200 patients): 0.5
HAZARDS RATIO, two-year mortality, univariable models ([1]; Cox univariable, 30 deaths among 200 patients): 0.4
hazard ratio, survival in diabetics at two years ([1]; diabetics, two years, P=0.03): 0.25
improvement of survival in diabetics at two years ([1]; diabetics, two years, P=0.03): approximately 75%
deaths over the first 6-8 months ([1]; first 6-8 months, noncardiac, placebo 10 deaths with 7 cardiac-related, P<0.001): one
CAUSE OF DEATH [1, 3]: Respiratory failure and Ventricular tachycardia and Severe CAD, sepsis and Sepsis, ALS and Metastatic renal CA and CHF post CABG and ARDS and Cardiac arrest, lung CA and Metastatic squamous cell CA, larynx, lung
TIME TO DEATH [1, 3]: 237 days and 295 days and 327 days and 385 days and 416 days and 481 days and 529 days and 582 days and 656 days
decrease in the rate of cardiac events within one year ([1]; one year, versus placebo): 3 fold
cardiac events within one year following surgery ([1]; one year, placebo 22 patients, P=0.003): 7 patients
time-to-first adverse event ([1]; placebo group 6 days): 158 days
time to first death ([1]; placebo group 19 days): 237 days
cardiac events within six months following surgery ([1]; six months, placebo 12 patients, P<0.001): 0 patients
cardiovascular event-free survival of patients (FIG. 2) ([1]; two years after surgery): increases cardiovascular event-free survival of patients for two years after surgery
survival of patients (FIG. 1) ([1]; two years after surgery): increases the survival of patients for two years after surgery
decrease in the rate of cardiac events within two years ([1]; two years, versus placebo): 2 fold
reduction in all-cause mortality ([1]; two years, versus placebo, P=0.019): 57%
reduction in cardiac mortality ([1]; two years, versus placebo, P=0.033): 67%
cardiac-related deaths over the two-year outcome period ([1]; two years, placebo 12 cardiac): 4 deaths
deaths (all-cause) over the two-year outcome period ([1]; two years, placebo 21 deaths, P=0.019): 9 deaths
cardiac events within two years following surgery ([1]; two years, placebo 32 patients, P=0.008): 16 patients
noncardiac deaths secondary to metastatic cancer during hospitalization ([2]; during hospitalization): two
noncardiac deaths with pulmonary failure secondary to massive infusion for fluid loss during hospitalization ([2]; during hospitalization): one
cardiac deaths secondary to myocardial infarction during hospitalization ([2]; during hospitalization, placebo two): one
average heart rate during treatment ([2]; during treatment, placebo 87 bpm, P<0.001): 75 bpm
maximum heart rate during treatment ([2]; during treatment, placebo 130 bpm, P<0.001): 113 bpm
patients tolerating the full dose ([2]; human, in vivo): more than 60%
patients who tolerated administration ([2]; human, in vivo): More than 85%
patients with 20% or more decrease in systolic blood pressure or heart rate ([2]; human, in vivo, iv): approximately 10%
patients who developed systolic blood pressure <90 mm Hg or heart rate <40 bpm, or required therapy ([2]; in vivo, iv): no patient
incidence of hypotension or bradycardia, or other events ([2]; in vivo, po): not associated with an increased incidence
